Data taken from paper PMC6723587 (Toxins, 2019).
Like-named read-outs stand apart in the source and are kept apart here.

Tests used:
[1] = for the sum of DON, DON3G, 3-ADON and 15-ADON; EFSA; cited from earlier work
[2] = in vivo
[3] = cited from earlier work
[4] = system: human cytosolic beta-glucosidases; conditions: in vitro incubation; cited from earlier work
[5] = pigs, cited from earlier work
[6] = pigs, oral single dose DON3G 56 µg/kg bw; cited from earlier work
[7] = in vivo; remark: listed apart in the source
[8] = oral single dose DON3G 116 µg/kg bw

CC(=O)O[C@@H]1C[C@]2(C)[C@@]3(CO)[C@H](O)C(=O)C(C)=C[C@H]3O[C@H]1[C@@]21CO1 [3-ADON, 3-acetyldeoxynivalenol]
tolerable daily intake (group-TDI) [1]: 1 µg/kg body weight (bw)/day

CC(=O)OC[C@]12[C@H](O)C(=O)C(C)=C[C@H]1O[C@@H]1[C@H](O)C[C@@]2(C)[C@]12CO2 [15-ADON, 15-acetyldeoxynivalenol]
tolerable daily intake (group-TDI) [1]: 1 µg/kg body weight (bw)/day

C=C1[C@@H]2O[C@@H]3C=C(C)C(=O)[C@@H](O)[C@]3(CO)[C@@]1(C)C[C@H]2O [DOM-1, de-epoxy-deoxynivalenol]
detection in urine [2]: Neither DON3G nor DOM-1 was detected
part of total DON3G recovered in urine ([3]; after administration of DON3G): approximately 7%

CC1=C[C@H]2O[C@@H]3[C@H](O[C@@H]4O[C@H](CO)[C@@H](O)[C@H](O)[C@H]4O)C[C@](C)([C@@]2(CO)[C@H](O)C1=O)[C@]31CO1 [DON3G, deoxynivalenol-3-glucoside]
detection in urine [2]: Neither DON3G nor DOM-1 was detected
hydrolysis by human cytosolic beta-glucosidases [4]: did not hydrolyse
part of the dose excreted in urine during the first 8 h [5, 8]: approximately 2.5%
part of the dose excreted in urine during the rest of the 24-hour collection period [5, 8]: 1%
presence in urine after oral administration [5]: found in urine
detection in systemic plasma and vena porta plasma [6]: could not be detected
urine sample with the maximum excreted amount [7]: first voided urine sample
Fabs (fraction absorbed) ([7]; po): 0.53
Ke (excretion rate constant) ([7]; po): 0.018
maximum percentage absorbed in the volunteers ([7]; po): 84%
part absorbed as glucoside, % of the oral dose of DON3G ([7]; po): < 5%
percentage absorbed, variation among the volunteers ([7]; po): 29-84%
total amount excreted unchanged in urine, % of the administered dose ([7]; po): 1-5%
tolerable daily intake (group-TDI) [1]: 1 µg/kg body weight (bw)/day
detectability in urine twelve hours after administration ([3]; single dose of DON3G): not detectable

CC1=C[C@H]2O[C@@H]3[C@H](O)C[C@](C)([C@@]2(CO)[C@H](O)C1=O)[C@]31CO1 [DON, deoxynivalenol]
Fabs (fraction absorbed) ([2]; both, human, po): 0.56
maximum percentage absorbed in the volunteers ([2]; both, human, po): 98%
percentage absorbed, variation among the volunteers ([2]; both, human, po): 30-98%
tolerable daily intake (group-TDI) [1]: 1 µg/kg body weight (bw)/day
